Publication PMC9913425, “Pentacyclic Triterpenoids-Based Ionic Compounds: Synthesis, Study of Structure–Antitumor Activity Relationship, Effects on Mitochondria and Activation of Signaling Pathways of Proliferation, Genome Reparation and Early Apoptosis” (Cancers, 2023)

Key:
HEK293 = assay: In vitro cytotoxicity, IC50 by flow cytometry (Guava ViaCount); type: cell-based; conditions: conditionally normal
Protocol: (§1) Human cancer cell line HeLa, HL60, A2780 was obtained from the HPA Culture Collections (Salisbury, UK). Cells (Jurkat, K562, U937, Hek293, Fibroblasts) were purchased from Russian Cell Culture Collection (Institute of Cytology of the Russian Academy of Sciences, […], Russia) and cultured according to standard protocols and sterile technique. […] Cells were maintained in RPMI 1640 (Jurkat, K562, U937, HL60) (Gibco, Billings, MT, USA) supplemented with […], 10% FBS (Sigma) and 100 units/mL penicillin–streptomycin (Sigma). All types of cells were grown in an atmosphere of 5% CO2 at 37 °C. The cells were subcultured at 2–3 days intervals. Cells were then seeded in 24-well plates at 5 × 10^4 cells per well and incubated overnight. Jurkat, K562, U937, HL60 cells were subcultured at 2-day intervals with a seeding density of 1 × 10^5 cells per 24-well plates in RPMI with 10% FBS.
(§2) The antitumor activity of the synthesized ionic compounds was initially assessed in vitro on Jurkat, K562, U937, HL60, HEK293, A2780 cell lines, including the determination of IC50 by flow cytometry involving Guava ViaCount (Millipore) reagent kits.

Jurkat = assay: as above; type: cell-based; conditions: Jurkat cells
Protocol: as §1, §2

K562 = assay: as above; type: cell-based
Protocol: as §1, §2

U937 = assay: as above; type: cell-based
Protocol: as §1, §2

A2780 = assay: as above; type: cell-based, human
Protocol: as §1, §2

HL60 = assay: as above; type: cell-based, human
Protocol: as §1, §2

Jurkat cells = assay: Apoptosis/necrosis induction (Annexin V Alexa Fluor488, 7AAD staining); type: cell-based; conditions: compound at IC50 concentration, incubation 2 h
Text: Multiparametric evaluation of marker molecules, along with the detection of damage to the mitochondrial membrane, makes it possible to clearly determine the type of cell death. The method of cell staining with three different dyes (Annexin V Alexa Fluor488, 7AAD and MitoSense Red) provides simultaneous specification of various aspects of the state of the cell membrane, the state of DNA and the viability of mitochondria; together, it is a reliable sign of intrinsic and mitochondrial apoptosis pathway. Normal cells with intact mitochondrial membranes have high MitoSense Red fluorescence, while cells with decoupled oxidation and phosphorylation have much lower fluorescence. […]
Figure 1 The ratio of the level of mito-damage and the level of apoptosis in Jurkat cells of ionic compounds based on ursolic, oleanolic and betulinic acids.

[1] = tested on: mitochondria of Jurkat tumor cells; assay: Mitochondrial damage (MitoSense Red staining); type: cell-based; conditions: compound at IC50 concentration, incubation 2 h

| Molecule | IC50 (HEK293; HEK293 cells) [nM] | IC50 (Jurkat) [nM] | IC50 (K562; K562 cells) [nM] | IC50 (U937; U937 cells) [nM] | IC50 (A2780; A2780 cells) [nM] | IC50 (HL60; HL60 cells) [nM] | Apoptosis (%) Early (Jurkat cells) [%] | Apoptosis (%) Late (Jurkat cells) [%] | Apoptosis (%) Necrosis (Jurkat cells) [%] | Mito-Damage (%) [1] [%] | IC50 (HEK293; Homo sapiens, HEK293, HEK293 cells) [nM] | IC50 (Jurkat; Homo sapiens, Jurkat) [nM] | IC50 (K562; Homo sapiens, K562, K562 cells) [nM] | IC50 (U937; Homo sapiens, U-937, U937 cells) [nM] | IC50 (A2780; Homo sapiens, A2780, A2780 cells) [nM] | IC50 (HL60; Homo sapiens, HL-60, HL60 cells) [nM] |
| --- | --- | --- | --- | --- | --- | --- | --- | --- | --- | --- | --- | --- | --- | --- | --- | --- |
| 1-Benzyl-3-methylimidazolium (3β)-3-hydroxyolup-20(29)-en28-oylate [17d] | 189 ± 16 | 16 ± 1 | 44 ± 2 | 40 ± 2 | 87 ± 9 | 19 ± 2 | 4.82 | 1.44 | 2.11 | 9.69 |  |  |  |  |  |  |
| 1-Benzyl-3-methylimidazolium (3β)-3-hydroxyours-12-en-28-oylate [16d] | 56 ± 4 | 11 ± 1 | 12 ± 1 | 11 ± 1 | 27 ± 2 | 5 ± 1 |  |  |  |  |  |  |  |  |  |  |
| 1-Butyl-3-methylimidazolium (3β)-3-hydroxyolean-12-en-28-oylate [15b] | 167 ± 16 | 19 ± 1 | 41 ± 2 | 38 ± 2 | 79 ± 7 | 17 ± 2 |  |  |  |  |  |  |  |  |  |  |
| 1-Butyl-3-methylimidazolium (3β)-3-hydroxyolup-20(29)-en28-oylate [17b] | 159 ± 14 | 14 ± 1 | 39 ± 3 | 32 ± 3 | 74 ± 6 | 15 ± 1 | 6.45 | 3.38 | 1.92 | 17.39 |  |  |  |  |  |  |
| 1-Butyl-3-methylimidazolium (3β)-3-hydroxyours-12-en-28-oylate [16b] | 935 ± 94 | 97 ± 6 | 336 ± 16 | 299 ± 14 | 396 ± 35 | 89 ± 8 |  |  |  |  |  |  |  |  |  |  |
| 1-Hexyl-3-methylimidazolium (3β)-3-hydroxyolean-12-en-28-oylate [15c] | 392 ± 38 | 43 ± 2 | 80 ± 4 | 69 ± 3 | 157 ± 18 | 39 ± 4 |  |  |  |  |  |  |  |  |  |  |
| 1-Hexyl-3-methylimidazolium (3β)-3-hydroxyolean-12-en-28-oylate [15d] | 581 ± 47 | 107 ± 6 | 159 ± 8 | 143 ± 7 | 231 ± 22 | 69 ± 7 |  |  |  |  |  |  |  |  |  |  |
| 1-Hexyl-3-methylimidazolium (3β)-3-hydroxyolup-20(29)-en28-oylate [17c] | 293 ± 31 | 29 ± 2 | 56 ± 3 | 54 ± 3 | 113 ± 10 | 26 ± 3 | 3.97 | 1.70 | 2.82 | 8.71 |  |  |  |  |  |  |
| 1-Hexyl-3-methylimidazolium (3β)-3-hydroxyours-12-en-28-oylate [16c] | 81 ± 8 | 7 ± 1 | 16 ± 1 | 14 ± 1 | 39 ± 4 | 7 ± 1 |  |  |  |  |  |  |  |  |  |  |
| C[n+]1ccn(CCOC(=O)[C@]23CCC(C)(C)CC2C2=CCC4[C@@]5(C)CC[C@H](O)C(C)(C)C5CC[C@@]4(C)[C@]2(C)CC3)c1 (stereo partly drawn) [9a, 1-(2-{[(3β)-3-Hydroxyolean-12-en-28-oyl]oxy}ethyl)-3-methylimidazolium Bromide] |  |  |  |  |  |  | 1.72 | 2.79 | 1.96 | 5.07 | 259 ± 24 | 37 ± 2 | 78 ± 4 | 69 ± 4 | 132 ± 11 | 24 ± 2 |
